# Non-standard residues stand in square brackets, D forms with d. Residues, ends and D or L forms follow the SMILES beside them. *: point of attachment. Cbz = O=C(OCc1ccccc1)*; Dap = NC[C@H](N)C(=O)O
# Experiments:
# [1] = target: NVPro (Norovirus, UniProt Q83883); experiment: Inhibition of recombinant NVPro; format: biochemical; details: for fold less active than compound 1: ratio of Ki vs compound 1; for Ki: Table 1, recombinant NVPro
# [2] = target: HOVPro (Norovirus Hu/Houston/TCH186/2002/US (Norovirus GII.4), UniProt A9YYE3); experiment: Inhibition of Houston virus protease; format: biochemical; details: HOVPro vs NVPro Ki
fold less active than compound 1 ([1]; NVPro),Ki [1],SMILES,inhibitory activity against NVPro ([1]; NVPro),other results
–,–,"CC(C)C[C@H](NC(=O)OCc1ccccc1)C(=O)N[C@@H](Cc1ccccc1)C(=O)N[C@H](C=O)CCC(=O)N(C)C [compound 1, Z-Leu-Phe-Gln(diMe)-CHO] (Cbz-Leu-Phe-Glu(NMe2)-aldehyde)",–,"fold more active than compound 8 ([1]; NVPro, ratio of Ki): 380 fold; fold more active than compounds 5 and 2 ([1]; NVPro, ratio of Ki): 3-5 fold; fold activity reduction against HOVPro as compared with NVPro [2]: > 60 fold"
~ 12 fold,–,CC(=O)NC[C@@H](C=O)NC(=O)[C@H](Cc1ccccc1)NC(=O)[C@H](CC(C)C)NC(=O)OCc1ccccc1 [compound 3] (Cbz-Leu-Phe-[Dap](Ac)-aldehyde),–,–
> 300 fold,–,CC(=O)N[C@@H](CC(C)C)C(=O)N[C@@H](Cc1ccccc1)C(=O)N[C@H](C=O)CCC(=O)N(C)C [compound 9] (Ac-Leu-Phe-Glu(NMe2)-aldehyde),–,–
"1,200 fold",–,CC(=O)[C@H](CCC(=O)N(C)C)NC(=O)[C@H](Cc1ccccc1)NC(=O)[C@H](CC(C)C)NC(=O)OCc1ccccc1 [compound 10],–,–
–,inactive,CCOC(=O)/C=C/[C@H](CCC(=O)N(C)C)NC(=O)[C@H](Cc1ccccc1)NC(=O)[C@H](CC(C)C)NC(=O)OCc1ccccc1 [compound 11],essentially inactive,–
–,inactive,CCOC(=O)/C=C/[C@H](CCC(N)=O)NC(=O)[C@H](Cc1ccccc1)NC(=O)[C@H](CC(C)C)NC(=O)OCc1ccccc1 [compound 12],Neither 12 nor 13 exhibits inhibitory activity,–
–,inactive,CCOC(=O)/C=C/[C@H](CNC(C)=O)NC(=O)[C@H](Cc1ccccc1)NC(=O)[C@H](CC(C)C)NC(=O)OCc1ccccc1 [compound 13],Neither 12 nor 13 exhibits inhibitory activity,–
42 fold,–,CNC(=O)CC[C@@H](C=O)NC(=O)[C@H](Cc1ccccc1)NC(=O)[C@H](CC(C)C)NC(=O)OCc1ccccc1 [compound 14] (Cbz-Leu-Phe-Glu(NHMe)-aldehyde),–,–
–,–,CC(C)C[C@H](NC(=O)OCc1ccccc1)C(=O)N[C@@H](Cc1ccccc1)C(=O)N[C@H](C=O)CCC(=O)NC1CC1 [compound 15],–,"fold improved inhibition as compared to compound 14 ([1]; NVPro, ratio of Ki): ~ 3 fold"
